This is an account of results in patent US20230123334A1, “AMINO LIPID COMPOUND, PREPARATION METHOD THEREFOR, AND APPLICATION THEREOF” (SHENZHEN SHENXIN BIOTECHNOLOGY CO., LTD., priority 2020, published 2023).

For the assay, the system named is HEK293 cells. Nature of the assay: Preliminary screening as DNA vectors, GFP transfection of HEK293 cells. The assay is classed as cell-based. The following applies: amino lipid/DOPE liposome with 75 ng plasmid DNA (psin-EGFP-IRES-Puro); number of GFP-expressing cells divided by total nuclei (Hoechst). In outline: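 Lipid + DOPE liposomes (NaOAc, pH 5.6) complexed w/ 75 ng psin-EGFP-IRES-Puro, 30 min RT; added to 3-5×10^4 HEK293/well, 37° C. Hoechst 0.2 μg/mL at 20-24 h, imaged after further 20-24 h. Efficiency = GFP+ cells / total nuclei.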

Each structure is given as a SMILES string.

For `CCCCCCCCCCCCCCCCSc1nc(NCC2CCN(C)CC2)nc(N(CCCCCCCCCCCC)CCCCCCCCCCCC)n1` [S16^2N12 D10], the “Absolute DNA transfection efficiency in HEK293 cells” value (shortened to “Absolute DNA transfection efficiency”) was 0.3%. The same measure for `CCCCCCCCCCCCCCCCCCSc1nc(NCCCCCC)nc(NCCN(C)C)n1` [S18N6 D1]: 6.9%; for `CCCCCCCCCCCCCCCCCCSc1nc(NCCCCCC)nc(NCCN2CCOCC2)n1` [S18N6 D2]: 5.9%; for `CCCCCCCCCCCCCCCCCCSc1nc(NCCCCCC)nc(NCCN2CCCC2)n1` [S18N6 D3]: 22.1%. The same measure for `CCCCCCCCCCCCCCCCCCSc1nc(NCCCCCC)nc(NCCN2CCCCC2)n1` [S18N6 D4]: 7.2%; for `CCCCCCCCCCCCCCCCCCSc1nc(NCCCCCC)nc(NCCN2CCN(C)CC2)n1` [S18N6 D5]: 18.1%. Next, `CCCCCCCCCCCCCCCCCCSc1nc(NCCCCCC)nc(NCCCN(C)C)n1` [S18N6 D6]: 14.5%; `CCCCCCCCCCCCCCCCCCSc1nc(NCCCCCC)nc(NCCN(CC)CC)n1` [S18N6 D7]: 10.4%; `CCCCCCCCCCCCCCCCCCSc1nc(NCCCCCC)nc(NCCCN2CCOCC2)n1` [S18N6 D8]: 5.5%.

For `CCCCCCCCCCCCCCCCCCSc1nc(NCCCCCC)nc(NCCCN2CCN(C)CC2)n1` [S18N6 D9], the “Absolute DNA transfection efficiency” value is 11.0%. Next, `CCCCCCCCCCCCCCCCCCSc1nc(NCCCCCC)nc(NCC2CCN(C)CC2)n1` [S18N6 D10]: 8.9%; `CCCCCCCCCCCCCCCCCCSc1nc(NCCCCCCC)nc(NCCN(C)C)n1` [S18N7 D1]: 6.8%.

Regarding `CCCCCCCCCCCCCCCCCCSc1nc(NCCCCCCC)nc(NCCN2CCOCC2)n1` [S18N7 D2], the “Absolute DNA transfection efficiency” value was determined as 3.2%. For the compound `CCCCCCCCCCCCCCCCCCSc1nc(NCCCCCCC)nc(NCCN2CCCC2)n1` [S18N7 D3], the “Absolute DNA transfection efficiency” value is listed as 15.6%.

As to `CCCCCCCCCCCCCCCCCCSc1nc(NCCCCCCC)nc(NCCN2CCCCC2)n1` [S18N7 D4], the “Absolute DNA transfection efficiency” value was found to be 3.5%. Next, `CCCCCCCCCCCCCCCCCCSc1nc(NCCCCCCC)nc(NCCN2CCN(C)CC2)n1` [S18N7 D5]: 28.2%; `CCCCCCCCCCCCCCCCCCSc1nc(NCCCCCCC)nc(NCCCN(C)C)n1` [S18N7 D6]: 20.7%. On to `CCCCCCCCCCCCCCCCCCSc1nc(NCCCCCCC)nc(NCCN(CC)CC)n1` [S18N7 D7], for which the “Absolute DNA transfection efficiency” value came to 4.5%.

For the compound `CCCCCCCCCCCCCCCCCCSc1nc(NCCCCCCC)nc(NCCCN2CCOCC2)n1` [S18N7 D8], the “Absolute DNA transfection efficiency” value stood at 3.9%. `CCCCCCCCCCCCCCCCCCSc1nc(NCCCCCCC)nc(NCCCN2CCN(C)CC2)n1` [S18N7 D9]: the “Absolute DNA transfection efficiency” value is 9.3%.

For `CCCCCCCCCCCCCCCCCCSc1nc(NCCCCCCC)nc(NCC2CCN(C)CC2)n1` [S18N7 D10], the “Absolute DNA transfection efficiency” value turned out to be 13.5%. Next, `CCCCCCCCCCCCCCCCCCSc1nc(NCCCCCCCC)nc(NCCN(C)C)n1` [S18N8 D1]: 4.1%; `CCCCCCCCCCCCCCCCCCSc1nc(NCCCCCCCC)nc(NCCN2CCOCC2)n1` [S18N8 D2]: 3.8%. The same measure for `CCCCCCCCCCCCCCCCCCSc1nc(NCCCCCCCC)nc(NCCN2CCCC2)n1` [S18N8 D3]: 9.6%.

As for `CCCCCCCCCCCCCCCCCCSc1nc(NCCCCCCCC)nc(NCCN2CCCCC2)n1` [S18N8 D4], the “Absolute DNA transfection efficiency” value amounted to 3.9%. Next, `CCCCCCCCCCCCCCCCCCSc1nc(NCCCCCCCC)nc(NCCN2CCN(C)CC2)n1` [S18N8 D5]: 13.6%. In the case of `CCCCCCCCCCCCCCCCCCSc1nc(NCCCCCCCC)nc(NCCCN(C)C)n1` [S18N8 D6], the “Absolute DNA transfection efficiency” value is 23.0%.

Regarding `CCCCCCCCCCCCCCCCCCSc1nc(NCCCCCCCC)nc(NCCN(CC)CC)n1` [S18N8 D7], the “Absolute DNA transfection efficiency” value stood at 6.7%. The same measure for `CCCCCCCCCCCCCCCCCCSc1nc(NCCCCCCCC)nc(NCCCN2CCOCC2)n1` [S18N8 D8]: 2.0%; for `CCCCCCCCCCCCCCCCCCSc1nc(NCCCCCCCC)nc(NCCCN2CCN(C)CC2)n1` [S18N8 D9]: 6.6%; for `CCCCCCCCCCCCCCCCCCSc1nc(NCCCCCCCC)nc(NCC2CCN(C)CC2)n1` [S18N8 D10]: 11.7%. Regarding `CCCCCCCCCCCCCCCCCCSc1nc(NCCCCCCCCC)nc(NCCN(C)C)n1` [S18N9 D1], the “Absolute DNA transfection efficiency” value is listed as 5.3%.

Take `CCCCCCCCCCCCCCCCCCSc1nc(NCCCCCCCCC)nc(NCCN2CCOCC2)n1` [S18N9 D2]: the “Absolute DNA transfection efficiency” value is 3.4%. `CCCCCCCCCCCCCCCCCCSc1nc(NCCCCCCCCC)nc(NCCN2CCCC2)n1` [S18N9 D3]: the “Absolute DNA transfection efficiency” value stood at 20.4%. Next, `CCCCCCCCCCCCCCCCCCSc1nc(NCCCCCCCCC)nc(NCCN2CCCCC2)n1` [S18N9 D4]: 4.0%; `CCCCCCCCCCCCCCCCCCSc1nc(NCCCCCCCCC)nc(NCCN2CCN(C)CC2)n1` [S18N9 D5]: 7.7%. Next, `CCCCCCCCCCCCCCCCCCSc1nc(NCCCCCCCCC)nc(NCCCN(C)C)n1` [S18N9 D6]: 19.5%; `CCCCCCCCCCCCCCCCCCSc1nc(NCCCCCCCCC)nc(NCCN(CC)CC)n1` [S18N9 D7]: 6.7%; `CCCCCCCCCCCCCCCCCCSc1nc(NCCCCCCCCC)nc(NCCCN2CCOCC2)n1` [S18N9 D8]: 3.0%. The same measure for `CCCCCCCCCCCCCCCCCCSc1nc(NCCCCCCCCC)nc(NCCCN2CCN(C)CC2)n1` [S18N9 D9]: 0.0%; for `CCCCCCCCCCCCCCCCCCSc1nc(NCCCCCCCCC)nc(NCC2CCN(C)CC2)n1` [S18N9 D10]: 4.5%; for `CCCCCCCCCCCCCCCCCCSc1nc(NCCCCCCCCCCC)nc(NCCN(C)C)n1` [S18N11 D1]: 3.7%. Consider `CCCCCCCCCCCCCCCCCCSc1nc(NCCCCCCCCCCC)nc(NCCN2CCOCC2)n1` [S18N11 D2], for which the “Absolute DNA transfection efficiency” value was determined as 1.4%.

For the compound `CCCCCCCCCCCCCCCCCCSc1nc(NCCCCCCCCCCC)nc(NCCN2CCCC2)n1` [S18N11 D3], the “Absolute DNA transfection efficiency” value is listed as 4.2%. On to `CCCCCCCCCCCCCCCCCCSc1nc(NCCCCCCCCCCC)nc(NCCN2CCCCC2)n1` [S18N11 D4], for which the “Absolute DNA transfection efficiency” value turned out to be 10.1%. As for `CCCCCCCCCCCCCCCCCCSc1nc(NCCCCCCCCCCC)nc(NCCN2CCN(C)CC2)n1` [S18N11 D5], the “Absolute DNA transfection efficiency” value was 6.3%. The same measure for `CCCCCCCCCCCCCCCCCCSc1nc(NCCCCCCCCCCC)nc(NCCCN(C)C)n1` [S18N11 D6]: 5.2%; for `CCCCCCCCCCCCCCCCCCSc1nc(NCCCCCCCCCCC)nc(NCCN(CC)CC)n1` [S18N11 D7]: 2.7%.

As for `CCCCCCCCCCCCCCCCCCSc1nc(NCCCCCCCCCCC)nc(NCCCN2CCOCC2)n1` [S18N11 D8], the “Absolute DNA transfection efficiency” value turned out to be 1.3%. Next, `CCCCCCCCCCCCCCCCCCSc1nc(NCCCCCCCCCCC)nc(NCCCN2CCN(C)CC2)n1` [S18N11 D9]: 2.9%. Next, `CCCCCCCCCCCCCCCCCCSc1nc(NCCCCCCCCCCC)nc(NCC2CCN(C)CC2)n1` [S18N11 D10]: 2.7%; `CCCCCCCCCCCCCCCCCCSc1nc(NCCCCCCCCCCCC)nc(NCCN(C)C)n1` [S18N12 D1]: 1.3%. In the case of `CCCCCCCCCCCCCCCCCCSc1nc(NCCCCCCCCCCCC)nc(NCCN2CCOCC2)n1` [S18N12 D2], the “Absolute DNA transfection efficiency” value was 0.7%. Next, `CCCCCCCCCCCCCCCCCCSc1nc(NCCCCCCCCCCCC)nc(NCCN2CCCC2)n1` [S18N12 D3]: 1.8%; `CCCCCCCCCCCCCCCCCCSc1nc(NCCCCCCCCCCCC)nc(NCCN2CCCCC2)n1` [S18N12 D4]: 0.3%. Next, `CCCCCCCCCCCCCCCCCCSc1nc(NCCCCCCCCCCCC)nc(NCCN2CCN(C)CC2)n1` [S18N12 D5]: 1.0%.

As for `CCCCCCCCCCCCCCCCCCSc1nc(NCCCCCCCCCCCC)nc(NCCCN(C)C)n1` [S18N12 D6], the “Absolute DNA transfection efficiency” value turned out to be 0.5%. Next, `CCCCCCCCCCCCCCCCCCSc1nc(NCCCCCCCCCCCC)nc(NCCN(CC)CC)n1` [S18N12 D7]: 0.5%; `CCCCCCCCCCCCCCCCCCSc1nc(NCCCCCCCCCCCC)nc(NCCCN2CCOCC2)n1` [S18N12 D8]: 0.0%; `CCCCCCCCCCCCCCCCCCSc1nc(NCCCCCCCCCCCC)nc(NCCCN2CCN(C)CC2)n1` [S18N12 D9]: 0.0%. Consider `CCCCCCCCCCCCCCCCCCSc1nc(NCCCCCCCCCCCC)nc(NCC2CCN(C)CC2)n1` [S18N12 D10], for which the “Absolute DNA transfection efficiency” value amounted to 5.3%.

As to `CCCCCCCCCCCCCCCCCCSc1nc(NCCCCCCCCCCCCC)nc(NCCN(C)C)n1` [S18N13 D1], the “Absolute DNA transfection efficiency” value is recorded as 1.3%.

In the case of `CCCCCCCCCCCCCCCCCCSc1nc(NCCCCCCCCCCCCC)nc(NCCN2CCOCC2)n1` [S18N13 D2], the “Absolute DNA transfection efficiency” value was 0.0%.
